The kinase profiling compilation of Christmann-Franck et al. (2016)

Assays:
Assay in all cases: KINOMEscan competition binding
Settings in all cases: compound 10.0 µM
[1] = molecular target: CSNK1G2 (human) (UniProt P78368)
[2] = molecular target: NTRK3 (human) (UniProt Q16288)
[3] = tested on: ABL1 (human), P00519 [H396P]
[4] = molecular target: CDC42BPA (human) (UniProt Q5VT25)
[5] = molecular target: TSSK1B (human) (UniProt Q9BXA7)
[6] = molecular target: EPHA5 (human) (UniProt P54756)
[7] = molecular target: MAPKAPK2 (human) (UniProt P49137)
[8] = molecular target: WEE2 (human) (UniProt P0C1S8)
[9] = tested on: EGFR (human), P00533 [L861Q]
[10] = molecular target: MAP2K2 (human) (UniProt P36507)
[11] = molecular target: CDK11A (human) (UniProt Q9UQ88)
[12] = molecular target: MARK1 (human) (UniProt Q9P0L2)
[13] = molecular target: GSK3B (human) (UniProt P49841)
[14] = molecular target: DDR2 (human) (UniProt Q16832)
[15] = molecular target: RPS6KA2 KD1 (human) (UniProt Q15349)
[16] = molecular target: ADCK4 (human) (UniProt Q96D53)
[17] = molecular target: FER (human) (UniProt P16591)
[18] = molecular target: MAP3K12 (human) (UniProt Q12852)
[19] = molecular target: NEK7 (human) (UniProt Q8TDX7)
[20] = molecular target: MAP3K11 (human) (UniProt Q16584)
[21] = molecular target: AXL (human) (UniProt P30530)
[22] = molecular target: EPHA1 (human) (UniProt P21709)
[23] = molecular target: MARK3 (human) (UniProt P27448)
[24] = molecular target: CDK9 (human) (UniProt P50750)
[25] = molecular target: PAK1 (human) (UniProt Q13153)
[26] = molecular target: PAK4 (human) (UniProt O96013)
[27] = molecular target: CAMK2G (human) (UniProt Q13555)
[28] = molecular target: EPHB2 (human) (UniProt P29323)
[29] = molecular target: MAP3K10 (human) (UniProt Q02779)
[30] = molecular target: PIK3CA (human) (UniProt P42336)
[31] = molecular target: EPHA6 (human) (UniProt Q9UF33)
[32] = molecular target: PAK2 (human) (UniProt Q13177)
[33] = molecular target: MYO3B (human) (UniProt Q8WXR4)
[34] = tested on: EGFR (human), P00533 [752-759 del]
[35] = molecular target: PRKACB (human) (UniProt P22694)
[36] = molecular target: NEK5 (human) (UniProt Q6P3R8)
[37] = molecular target: FGFR2 (human) (UniProt P21802)
[38] = molecular target: NEK9 (human) (UniProt Q8TD19)
[39] = molecular target: NEK1 (human) (UniProt Q96PY6)
[40] = molecular target: PRKAA1 (human) (UniProt Q13131)
[41] = molecular target: YES1 (human) (UniProt P07947)
[42] = molecular target: TLK2 (human) (UniProt Q86UE8)

Chain of CAMK2G (human) (Q13555 whole entry, looked up): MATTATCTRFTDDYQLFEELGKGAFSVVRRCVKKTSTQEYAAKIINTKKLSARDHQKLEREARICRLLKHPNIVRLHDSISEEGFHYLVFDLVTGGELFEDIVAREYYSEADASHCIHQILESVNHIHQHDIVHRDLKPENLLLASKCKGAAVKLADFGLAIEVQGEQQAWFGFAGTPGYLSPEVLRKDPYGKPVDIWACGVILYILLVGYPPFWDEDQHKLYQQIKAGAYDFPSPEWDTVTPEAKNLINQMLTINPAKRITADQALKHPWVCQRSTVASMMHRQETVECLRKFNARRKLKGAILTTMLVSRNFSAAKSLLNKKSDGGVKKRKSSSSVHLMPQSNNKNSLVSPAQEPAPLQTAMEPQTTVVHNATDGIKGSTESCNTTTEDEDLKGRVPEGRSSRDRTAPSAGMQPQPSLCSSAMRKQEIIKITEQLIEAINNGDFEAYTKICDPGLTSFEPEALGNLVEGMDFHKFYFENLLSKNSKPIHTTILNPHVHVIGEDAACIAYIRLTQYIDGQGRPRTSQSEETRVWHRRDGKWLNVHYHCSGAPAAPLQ
Chain of WEE2 (human) (P0C1S8 whole entry, looked up): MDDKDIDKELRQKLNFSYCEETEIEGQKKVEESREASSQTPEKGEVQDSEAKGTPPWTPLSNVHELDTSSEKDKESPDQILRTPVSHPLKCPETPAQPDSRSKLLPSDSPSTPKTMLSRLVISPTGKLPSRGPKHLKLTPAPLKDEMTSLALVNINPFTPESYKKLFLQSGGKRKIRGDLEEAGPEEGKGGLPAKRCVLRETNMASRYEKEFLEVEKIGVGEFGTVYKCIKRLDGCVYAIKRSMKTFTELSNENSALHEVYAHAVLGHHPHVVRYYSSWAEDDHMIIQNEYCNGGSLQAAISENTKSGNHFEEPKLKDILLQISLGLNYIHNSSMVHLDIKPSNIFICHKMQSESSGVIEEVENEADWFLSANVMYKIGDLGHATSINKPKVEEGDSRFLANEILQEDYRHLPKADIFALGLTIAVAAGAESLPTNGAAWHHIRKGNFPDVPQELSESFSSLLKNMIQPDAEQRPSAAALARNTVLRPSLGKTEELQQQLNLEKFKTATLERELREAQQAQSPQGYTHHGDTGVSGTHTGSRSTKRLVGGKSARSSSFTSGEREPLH
Chain of CDC42BPA (human) (Q5VT25 whole entry, looked up): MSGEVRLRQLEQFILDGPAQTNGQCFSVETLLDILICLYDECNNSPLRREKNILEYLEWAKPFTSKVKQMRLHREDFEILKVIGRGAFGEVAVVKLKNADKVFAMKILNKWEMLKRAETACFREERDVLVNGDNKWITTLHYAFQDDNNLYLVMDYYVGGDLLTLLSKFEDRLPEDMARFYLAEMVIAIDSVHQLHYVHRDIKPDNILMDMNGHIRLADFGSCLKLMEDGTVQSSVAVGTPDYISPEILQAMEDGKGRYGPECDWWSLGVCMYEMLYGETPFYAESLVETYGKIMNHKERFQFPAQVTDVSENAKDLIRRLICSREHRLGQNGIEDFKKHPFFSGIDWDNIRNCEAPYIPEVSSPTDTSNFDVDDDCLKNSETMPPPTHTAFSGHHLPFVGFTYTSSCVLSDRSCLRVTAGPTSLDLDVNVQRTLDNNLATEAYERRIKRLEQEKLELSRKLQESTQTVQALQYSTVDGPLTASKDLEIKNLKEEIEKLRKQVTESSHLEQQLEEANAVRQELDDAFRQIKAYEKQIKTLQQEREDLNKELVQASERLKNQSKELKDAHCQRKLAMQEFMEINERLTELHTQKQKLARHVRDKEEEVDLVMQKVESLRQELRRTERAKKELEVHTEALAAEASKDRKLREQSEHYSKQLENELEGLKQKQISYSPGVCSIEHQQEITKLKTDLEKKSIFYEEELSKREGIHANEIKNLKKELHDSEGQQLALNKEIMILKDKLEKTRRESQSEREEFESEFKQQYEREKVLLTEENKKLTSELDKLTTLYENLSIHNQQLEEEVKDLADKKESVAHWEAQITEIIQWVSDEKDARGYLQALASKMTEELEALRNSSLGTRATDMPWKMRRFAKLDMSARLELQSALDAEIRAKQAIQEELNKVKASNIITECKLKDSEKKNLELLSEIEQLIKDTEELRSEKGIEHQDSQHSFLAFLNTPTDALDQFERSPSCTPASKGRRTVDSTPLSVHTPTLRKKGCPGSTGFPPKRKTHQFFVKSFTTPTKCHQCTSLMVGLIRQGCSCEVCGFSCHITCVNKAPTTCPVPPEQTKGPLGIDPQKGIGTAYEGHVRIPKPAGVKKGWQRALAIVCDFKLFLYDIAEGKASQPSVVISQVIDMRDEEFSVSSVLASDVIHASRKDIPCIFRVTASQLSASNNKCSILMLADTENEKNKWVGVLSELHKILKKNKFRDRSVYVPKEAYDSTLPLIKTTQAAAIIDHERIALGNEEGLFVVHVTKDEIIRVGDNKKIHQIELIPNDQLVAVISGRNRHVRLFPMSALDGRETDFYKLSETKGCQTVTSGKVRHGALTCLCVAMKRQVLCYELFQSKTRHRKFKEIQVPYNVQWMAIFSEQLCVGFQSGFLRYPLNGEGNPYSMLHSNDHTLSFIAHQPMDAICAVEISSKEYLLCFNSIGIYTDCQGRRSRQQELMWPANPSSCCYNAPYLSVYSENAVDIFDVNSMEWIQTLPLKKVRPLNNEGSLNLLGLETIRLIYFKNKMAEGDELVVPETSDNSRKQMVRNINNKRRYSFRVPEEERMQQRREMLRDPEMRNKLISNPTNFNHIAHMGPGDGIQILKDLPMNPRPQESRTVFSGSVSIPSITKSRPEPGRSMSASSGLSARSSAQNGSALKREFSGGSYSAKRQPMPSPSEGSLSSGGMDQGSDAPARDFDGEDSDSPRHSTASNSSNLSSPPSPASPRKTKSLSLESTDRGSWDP
Chain of NEK7 (human) (Q8TDX7 whole entry, looked up): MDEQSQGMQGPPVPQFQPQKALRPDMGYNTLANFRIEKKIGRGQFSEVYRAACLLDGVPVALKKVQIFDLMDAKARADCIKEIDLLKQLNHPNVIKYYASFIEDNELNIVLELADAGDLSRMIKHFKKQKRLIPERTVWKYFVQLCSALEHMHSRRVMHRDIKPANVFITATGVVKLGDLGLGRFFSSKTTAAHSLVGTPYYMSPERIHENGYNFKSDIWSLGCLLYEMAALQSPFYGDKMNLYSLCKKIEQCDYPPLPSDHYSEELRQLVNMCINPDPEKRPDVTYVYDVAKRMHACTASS
Chain of MAP3K10 (human) (Q02779 whole entry, looked up): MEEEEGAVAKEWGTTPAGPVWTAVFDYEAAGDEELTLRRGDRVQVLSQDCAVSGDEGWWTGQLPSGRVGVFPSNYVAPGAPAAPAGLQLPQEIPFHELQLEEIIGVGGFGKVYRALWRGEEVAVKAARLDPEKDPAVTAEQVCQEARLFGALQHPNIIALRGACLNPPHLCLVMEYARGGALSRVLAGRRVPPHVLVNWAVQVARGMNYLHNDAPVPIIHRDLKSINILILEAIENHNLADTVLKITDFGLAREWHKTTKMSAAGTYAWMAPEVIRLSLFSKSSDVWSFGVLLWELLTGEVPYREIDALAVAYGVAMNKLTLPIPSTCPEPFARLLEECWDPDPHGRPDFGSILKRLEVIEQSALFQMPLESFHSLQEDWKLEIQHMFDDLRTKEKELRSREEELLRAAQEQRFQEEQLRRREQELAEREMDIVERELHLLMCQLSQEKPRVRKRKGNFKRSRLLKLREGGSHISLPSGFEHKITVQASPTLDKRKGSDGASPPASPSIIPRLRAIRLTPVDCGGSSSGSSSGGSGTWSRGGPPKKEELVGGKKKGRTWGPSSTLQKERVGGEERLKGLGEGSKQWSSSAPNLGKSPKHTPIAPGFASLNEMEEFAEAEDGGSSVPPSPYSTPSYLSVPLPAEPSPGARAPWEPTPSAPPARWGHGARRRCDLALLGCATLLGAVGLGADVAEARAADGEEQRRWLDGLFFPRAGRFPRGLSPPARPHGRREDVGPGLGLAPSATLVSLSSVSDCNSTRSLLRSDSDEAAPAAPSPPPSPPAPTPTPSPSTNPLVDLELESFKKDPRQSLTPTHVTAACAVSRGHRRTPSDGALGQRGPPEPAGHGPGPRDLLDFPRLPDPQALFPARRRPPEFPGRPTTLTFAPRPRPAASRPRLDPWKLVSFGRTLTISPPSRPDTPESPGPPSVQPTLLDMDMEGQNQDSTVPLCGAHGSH
Chain of FER (human) (P16591 whole entry, looked up): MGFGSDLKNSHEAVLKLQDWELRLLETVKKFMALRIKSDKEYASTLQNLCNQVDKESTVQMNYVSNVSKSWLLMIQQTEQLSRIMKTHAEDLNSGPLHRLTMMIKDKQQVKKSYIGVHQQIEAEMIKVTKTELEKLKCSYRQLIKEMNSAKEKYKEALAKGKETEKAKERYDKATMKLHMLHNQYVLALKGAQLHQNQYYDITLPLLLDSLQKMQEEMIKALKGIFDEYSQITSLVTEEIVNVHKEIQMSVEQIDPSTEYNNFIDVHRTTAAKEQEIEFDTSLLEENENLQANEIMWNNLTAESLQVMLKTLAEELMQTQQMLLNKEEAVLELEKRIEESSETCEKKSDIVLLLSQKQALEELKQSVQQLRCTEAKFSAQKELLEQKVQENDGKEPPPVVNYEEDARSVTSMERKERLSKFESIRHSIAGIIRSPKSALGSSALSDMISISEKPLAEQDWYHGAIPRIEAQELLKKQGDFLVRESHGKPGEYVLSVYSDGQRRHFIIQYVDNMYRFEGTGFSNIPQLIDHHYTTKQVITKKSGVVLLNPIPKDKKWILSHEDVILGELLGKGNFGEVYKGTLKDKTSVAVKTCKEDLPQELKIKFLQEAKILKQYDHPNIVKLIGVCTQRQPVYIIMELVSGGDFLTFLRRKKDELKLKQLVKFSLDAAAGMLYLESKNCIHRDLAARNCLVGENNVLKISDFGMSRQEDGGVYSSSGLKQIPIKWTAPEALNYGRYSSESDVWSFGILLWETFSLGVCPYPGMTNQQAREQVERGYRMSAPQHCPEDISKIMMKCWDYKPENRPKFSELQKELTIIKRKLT

CN1C(=O)c2ccccc2N(C)c2nc(Nc3ccc(N4CCC(O)CC4)cc3)ncc21
kinase still bound, per cent of control [1]: 80%
kinase still bound, per cent of control [2]: 82%
kinase still bound, per cent of control [3]: 0.15%
kinase still bound, per cent of control [4]: 90%
kinase still bound, per cent of control [5]: 100%
kinase still bound, per cent of control [6]: 100%
kinase still bound, per cent of control [7]: 100%
kinase still bound, per cent of control [8]: 70%
kinase still bound, per cent of control [9]: 100%
kinase still bound, per cent of control [10]: 100%
kinase still bound, per cent of control [11]: 100%
kinase still bound, per cent of control [12]: 59%
kinase still bound, per cent of control [13]: 88%
kinase still bound, per cent of control [14]: 96%
kinase still bound, per cent of control [15]: 68%
kinase still bound, per cent of control [16]: 78%
kinase still bound, per cent of control [17]: 100%
kinase still bound, per cent of control [18]: 85%
kinase still bound, per cent of control [19]: 100%
kinase still bound, per cent of control [20]: 100%
kinase still bound, per cent of control [21]: 88%
kinase still bound, per cent of control [22]: 100%
kinase still bound, per cent of control [23]: 60%
kinase still bound, per cent of control [24]: 100%
kinase still bound, per cent of control [25]: 100%
kinase still bound, per cent of control [26]: 97%
kinase still bound, per cent of control [27]: 100%
kinase still bound, per cent of control [28]: 100%
kinase still bound, per cent of control [29]: 100%
kinase still bound, per cent of control [30]: 98%
kinase still bound, per cent of control [31]: 100%
kinase still bound, per cent of control [32]: 81%
kinase still bound, per cent of control [33]: 73%
kinase still bound, per cent of control [34]: 92%
kinase still bound, per cent of control [35]: 100%
kinase still bound, per cent of control [36]: 100%
kinase still bound, per cent of control [37]: 63%
kinase still bound, per cent of control [38]: 100%
kinase still bound, per cent of control [39]: 93%
kinase still bound, per cent of control [40]: 17%
kinase still bound, per cent of control [41]: 38%
kinase still bound, per cent of control [42]: 100%
